Source: PMC12416277, “Phytochemical alkaloids orchestrate immunometabolism against viral infections” (National Science Review, 2025)
Like-named read-outs stand apart in the source and are kept apart here.

Columns and labels:
[1] = system: HSV-1; test: microbe, parasite or virus in culture; type: cell-based, herpes simplex virus 1 (HSV-1); details: Human alphaherpesvirus 1, L929
[2] = system: EMCV; test: microbe, parasite or virus in culture; type: cell-based, encephalomyocarditis virus (EMCV); details: Cardiovirus A, L929
[3] = system: H1N1; test: Dose-response of infectivity, H1N1 in A549 cells (viral mRNA by qRT-PCR); type: cell-based; details: Influenza A virus, H1N1, A549
[4] = system: EMCV; test: microbe, parasite or virus in culture; type: cell-based, encephalomyocarditis virus (EMCV); details: Cardiovirus A, A549
[5] = system: VSV; type: cell-based, vesicular stomatitis virus (VSV)
[6] = system: HSV-1; test: microbe, parasite or virus in culture; type: cell-based, herpes simplex virus 1 (HSV-1); details: Human alphaherpesvirus 1, A549
[7] = system: H1N1; test: Dose-response of infectivity, H1N1 in L929 cells; type: cell-based; details: Influenza A virus
[8] = system: A549 cells; test: Transcriptome analysis (RNA-seq, GO, GSEA) of compound-treated A549 cells
[9] = system: VSV; type: in vivo, C57/BL6J mice; details: mice, VSV infection
[10] = system: H1N1; test: H1N1 mRNA in A549 cells pretreated with NPC1 inhibitors; type: cell-based, influenza virus A (H1N1); details: A549 cells pretreated before infection
[11] = system: H1N1; test: Antiviral effect in normal/serum-free medium during H1N1 infection of A549 cells; type: cell-based, influenza virus A (H1N1); details: serum-free conditions
[12] = system: VSV; type: cell-based, vesicular stomatitis virus (VSV); remark: listed apart in the source
[13] = system: VSV; type: cell-based, vesicular stomatitis virus (VSV); details: A549 cells pretreated before infection
[14] = biological target: T1, NPC1 (Homo sapiens, UniProt O15118); type: binding; details: […]; read-out: SPR KD
T1 sequence (O15118 23-1278): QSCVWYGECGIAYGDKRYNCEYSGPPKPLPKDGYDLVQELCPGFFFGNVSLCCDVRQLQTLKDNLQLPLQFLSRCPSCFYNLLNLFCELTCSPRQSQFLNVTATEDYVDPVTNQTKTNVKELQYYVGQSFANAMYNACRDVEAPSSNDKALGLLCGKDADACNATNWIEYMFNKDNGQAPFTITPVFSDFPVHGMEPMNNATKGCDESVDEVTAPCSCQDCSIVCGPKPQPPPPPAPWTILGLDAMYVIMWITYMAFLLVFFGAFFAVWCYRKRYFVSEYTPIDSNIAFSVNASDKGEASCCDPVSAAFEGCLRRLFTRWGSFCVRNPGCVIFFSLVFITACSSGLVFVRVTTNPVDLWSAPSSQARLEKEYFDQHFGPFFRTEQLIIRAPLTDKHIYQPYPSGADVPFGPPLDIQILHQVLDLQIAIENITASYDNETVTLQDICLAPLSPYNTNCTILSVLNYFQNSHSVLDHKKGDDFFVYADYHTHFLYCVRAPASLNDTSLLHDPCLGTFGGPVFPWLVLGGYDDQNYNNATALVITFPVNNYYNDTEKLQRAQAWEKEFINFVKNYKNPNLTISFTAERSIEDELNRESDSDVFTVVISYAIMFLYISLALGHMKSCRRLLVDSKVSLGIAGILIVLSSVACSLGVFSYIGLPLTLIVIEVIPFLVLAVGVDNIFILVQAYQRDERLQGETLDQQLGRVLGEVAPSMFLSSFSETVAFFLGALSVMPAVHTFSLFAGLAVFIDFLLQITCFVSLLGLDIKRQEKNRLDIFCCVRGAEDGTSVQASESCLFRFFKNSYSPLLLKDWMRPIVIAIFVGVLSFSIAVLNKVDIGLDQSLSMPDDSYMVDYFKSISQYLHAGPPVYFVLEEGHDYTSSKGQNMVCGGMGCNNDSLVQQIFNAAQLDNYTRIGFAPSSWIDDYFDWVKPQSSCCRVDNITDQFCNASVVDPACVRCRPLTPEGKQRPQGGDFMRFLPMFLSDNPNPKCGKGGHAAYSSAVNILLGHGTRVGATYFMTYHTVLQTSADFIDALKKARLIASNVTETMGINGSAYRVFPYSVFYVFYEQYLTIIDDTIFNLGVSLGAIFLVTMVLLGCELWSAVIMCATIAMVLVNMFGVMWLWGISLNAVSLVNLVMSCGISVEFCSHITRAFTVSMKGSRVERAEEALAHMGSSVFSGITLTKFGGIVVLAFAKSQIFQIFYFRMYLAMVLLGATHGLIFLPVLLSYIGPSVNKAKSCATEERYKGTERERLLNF

Row | SMILES | EC50 [1] [nM] | EC50 [2] [nM] | EC50 [3] [nM] | EC50 [4] [nM] | VSV replication (VSV-G protein, immunoblotting) [5] | EC50 [6] [nM] | EC50 [7] [nM] | GSEA NES, Sterol metabolic process ([8]; A549 cells, 10 µM, 24 h) | H1N1 replication [10] | VSV replication [13] | other results
1 | COc1cc2c3cc1Oc1c(OC)c(OC)cc4c1[C@@H](Cc1ccc(O)c(c1)Oc1ccc(cc1)C[C@@H]3N(C)CC2)N(C)CC4 [Bbm, berbamine] | 360 | 1500 | 606 | 107 | inhibited | 3270 | 2650 | 2.29 | – | – | GSEA NES, Response to virus ([8]; A549 cells, 10 µM, 24 h): 1.34
2 | COc1ccc2cc1Oc1ccc(cc1)C[C@H]1c3c(cc4c(c3Oc3cc5c(cc3OC)CCN(C)[C@@H]5C2)OCO4)CCN1C [Cep, cepharanthine] | 569 | 998 | 110 | 2090 | inhibited | 3160 | 3840 | 2.19 | – | – | GSEA NES, Innate immune response ([8]; A549 cells, 10 µM, 24 h): 1.25
3 | Cc1ccc2c(=O)c3cccc(CC(=O)O)c3oc2c1C [DMXAA] | – | – | – | – | – | – | – | – | – | – | IL-6 level in serum [9]: markedly decreased; TNF-α level in serum [9]: markedly decreased
4 | COc1ccc2cc1Oc1ccc(cc1)C[C@H]1c3cc(c(OC)cc3CCN1C)Oc1c(O)c(OC)cc3c1[C@H](C2)N(C)CC3 [Fan, fangchinoline] | 2320 | 1360 | 794 | 821 | inhibited | 2550 | 537 | 2.04 | – | – | GSEA NES, Response to type I interferon ([8]; A549 cells, 10 µM, 24 h): 2.27; expression of antiviral immune-related genes ([8]; WT A549 cells, compared among Tet, Fan, Cep, Bbm): higher expression
5 | CCN(CC)CCO[C@H]1CC[C@@]2(C)C(=CC[C@@H]3[C@@H]2CC[C@]2(C)C(=O)CC[C@@H]32)C1 [U18666A] | – | – | – | – | – | – | – | – | effectively blocked | effectively blocked | antiviral effect on H1N1 entry [11]: diminished; antiviral effect on VSV entry ([12]; MβCD pretreatment (cholesterol depleted)): abolished; antiviral effect on VSV entry ([12]; cholesterol supplementation using MβCD-cholesterol): restored inhibition
6 | CN(C)CCCN1c2ccccc2CCc2ccccc21 [imipramine] | – | – | – | – | – | – | – | – | effectively blocked | effectively blocked | –
7 | CCC(C)n1ncn(-c2ccc(N3CCN(c4ccc(OCC5COC(Cn6cncn6)(c6ccc(Cl)cc6Cl)O5)cc4)CC3)cc2)c1=O (stereo not drawn) [itraconazole] | – | – | – | – | – | – | – | – | effectively blocked | effectively blocked | Kd [14]: 8760 nM
8 | CC[C@@H]([C@H](C)O)n1ncn(-c2ccc(N3CCN(c4ccc(OC[C@@H]5CO[C@@](Cn6cncn6)(c6ccc(F)cc6F)C5)cc4)CC3)cc2)c1=O [posaconazole] | – | – | – | – | – | – | – | – | effectively blocked | effectively blocked | –
